Patent publication US8192962B2, “Processes for detecting toxic substances” (Daikin Industries, Ltd., priority 2001, dated 2012)

System: Stress protein genes
Experiment: DNA chip mRNA expression in yeast, stress protein genes (Table 6)
Assay type: cell-based, Saccharomyces cerevisiae S288C
Procedure, shortened: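 Untreated cultures served as reference for log-phase S288C yeast given a growth-inhibiting, non-lethal toxicant dose for 2 h at 25° C. in YPD. Gene expression was measured on a whole-genome DNA chip from Cy3/Cy5-labeled cDNA.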

SMILES: CCCCCCCCCCCCc1ccc(S(=O)(=O)[O-])cc1.[Na+] [(17), sodium dodecylbenzosulfonate]
- The level of expressed mRNA in the presence of chemical substance/The level of expressed mRNA in the absence of chemical substance (yeast gene YAL005C): 0.8
- The level of expressed mRNA in the presence of chemical substance/The level of expressed mRNA in the absence of chemical substance (yeast gene YAL015C): 1.1
- The level of expressed mRNA in the presence of chemical substance/The level of expressed mRNA in the absence of chemical substance (yeast gene YBL075C): 1.2
- The level of expressed mRNA in the presence of chemical substance/The level of expressed mRNA in the absence of chemical substance (yeast gene YBL093C): 1.4
- The level of expressed mRNA in the presence of chemical substance/The level of expressed mRNA in the absence of chemical substance (yeast gene YBR044C): 0.9
- The level of expressed mRNA in the presence of chemical substance/The level of expressed mRNA in the absence of chemical substance (yeast gene YBR054W): 0.7
- The level of expressed mRNA in the presence of chemical substance/The level of expressed mRNA in the absence of chemical substance (yeast gene YBR067C): 0.5
- The level of expressed mRNA in the presence of chemical substance/The level of expressed mRNA in the absence of chemical substance (yeast gene YBR072W): 1.8
- The level of expressed mRNA in the presence of chemical substance/The level of expressed mRNA in the absence of chemical substance (yeast gene YBR126C): 1.5
- The level of expressed mRNA in the presence of chemical substance/The level of expressed mRNA in the absence of chemical substance (yeast gene YBR169C): 1.3
- The level of expressed mRNA in the presence of chemical substance/The level of expressed mRNA in the absence of chemical substance (yeast gene YCL035C): 2.6
- The level of expressed mRNA in the presence of chemical substance/The level of expressed mRNA in the absence of chemical substance (yeast gene YCR021C): 0.7
- The level of expressed mRNA in the presence of chemical substance/The level of expressed mRNA in the absence of chemical substance (yeast gene YCR060W): 1.2
- The level of expressed mRNA in the presence of chemical substance/The level of expressed mRNA in the absence of chemical substance (yeast gene YCR083W): 1.3
- The level of expressed mRNA in the presence of chemical substance/The level of expressed mRNA in the absence of chemical substance (yeast gene YDL022W): 1.0
- The level of expressed mRNA in the presence of chemical substance/The level of expressed mRNA in the absence of chemical substance (yeast gene YDL025C): 1.0
- The level of expressed mRNA in the presence of chemical substance/The level of expressed mRNA in the absence of chemical substance (yeast gene YDR033W): 0.7
- The level of expressed mRNA in the presence of chemical substance/The level of expressed mRNA in the absence of chemical substance (yeast gene YDR077W): 1.4
- The level of expressed mRNA in the presence of chemical substance/The level of expressed mRNA in the absence of chemical substance (yeast gene YDR098C): 1.0
- The level of expressed mRNA in the presence of chemical substance/The level of expressed mRNA in the absence of chemical substance (yeast gene YDR155C): 1.2
- The level of expressed mRNA in the presence of chemical substance/The level of expressed mRNA in the absence of chemical substance (yeast gene YDR258C): 1.3
- The level of expressed mRNA in the presence of chemical substance/The level of expressed mRNA in the absence of chemical substance (yeast gene YDR293C): 1.4
- The level of expressed mRNA in the presence of chemical substance/The level of expressed mRNA in the absence of chemical substance (yeast gene YDR436W): 0.9
- The level of expressed mRNA in the presence of chemical substance/The level of expressed mRNA in the absence of chemical substance (yeast gene YDR513W): 1.3
- The level of expressed mRNA in the presence of chemical substance/The level of expressed mRNA in the absence of chemical substance (yeast gene YDR519W): 1.8
- The level of expressed mRNA in the presence of chemical substance/The level of expressed mRNA in the absence of chemical substance (yeast gene YEL030W): 0.9
- The level of expressed mRNA in the presence of chemical substance/The level of expressed mRNA in the absence of chemical substance (yeast gene YEL039C): 0.7
- The level of expressed mRNA in the presence of chemical substance/The level of expressed mRNA in the absence of chemical substance (yeast gene YER042W): 0.7
- The level of expressed mRNA in the presence of chemical substance/The level of expressed mRNA in the absence of chemical substance (yeast gene YER057C): 1.1
- The level of expressed mRNA in the presence of chemical substance/The level of expressed mRNA in the absence of chemical substance (yeast gene YER103W): 1.4
- The level of expressed mRNA in the presence of chemical substance/The level of expressed mRNA in the absence of chemical substance (yeast gene YER125W): 1.0
- The level of expressed mRNA in the presence of chemical substance/The level of expressed mRNA in the absence of chemical substance (yeast gene YFL014W): 1.5
- The level of expressed mRNA in the presence of chemical substance/The level of expressed mRNA in the absence of chemical substance (yeast gene YFL016C): 1.2
- The level of expressed mRNA in the presence of chemical substance/The level of expressed mRNA in the absence of chemical substance (yeast gene YFL020C): 1.5
- The level of expressed mRNA in the presence of chemical substance/The level of expressed mRNA in the absence of chemical substance (yeast gene YFR052W): 1.2
- The level of expressed mRNA in the presence of chemical substance/The level of expressed mRNA in the absence of chemical substance (yeast gene YGL073W): 2.5
- The level of expressed mRNA in the presence of chemical substance/The level of expressed mRNA in the absence of chemical substance (yeast gene YGL115W): 0.8
- The level of expressed mRNA in the presence of chemical substance/The level of expressed mRNA in the absence of chemical substance (yeast gene YGL181W): 1.0
- The level of expressed mRNA in the presence of chemical substance/The level of expressed mRNA in the absence of chemical substance (yeast gene YGR088W): 0.9
- The level of expressed mRNA in the presence of chemical substance/The level of expressed mRNA in the absence of chemical substance (yeast gene YHL028W): 1.6
- The level of expressed mRNA in the presence of chemical substance/The level of expressed mRNA in the absence of chemical substance (yeast gene YHL046C): 0.9
- The level of expressed mRNA in the presence of chemical substance/The level of expressed mRNA in the absence of chemical substance (yeast gene YHR030C): 2.0
- The level of expressed mRNA in the presence of chemical substance/The level of expressed mRNA in the absence of chemical substance (yeast gene YHR057C): 1.6
- The level of expressed mRNA in the presence of chemical substance/The level of expressed mRNA in the absence of chemical substance (yeast gene YHR104W): 1.9
- The level of expressed mRNA in the presence of chemical substance/The level of expressed mRNA in the absence of chemical substance (yeast gene YIL011W): 0.8
- The level of expressed mRNA in the presence of chemical substance/The level of expressed mRNA in the absence of chemical substance (yeast gene YIL033C): 1.0
- The level of expressed mRNA in the presence of chemical substance/The level of expressed mRNA in the absence of chemical substance (yeast gene YIR037W): 1.7
- The level of expressed mRNA in the presence of chemical substance/The level of expressed mRNA in the absence of chemical substance (yeast gene YIR038C): 2.8
- The level of expressed mRNA in the presence of chemical substance/The level of expressed mRNA in the absence of chemical substance (yeast gene YJL128C): 1.0
- The level of expressed mRNA in the presence of chemical substance/The level of expressed mRNA in the absence of chemical substance (yeast gene YJL158C): 1.4
- The level of expressed mRNA in the presence of chemical substance/The level of expressed mRNA in the absence of chemical substance (yeast gene YJL159W): 1.4
- The level of expressed mRNA in the presence of chemical substance/The level of expressed mRNA in the absence of chemical substance (yeast gene YJL165C): 1.3
- The level of expressed mRNA in the presence of chemical substance/The level of expressed mRNA in the absence of chemical substance (yeast gene YJR045C): 0.7
- The level of expressed mRNA in the presence of chemical substance/The level of expressed mRNA in the absence of chemical substance (yeast gene YJR090C): 1.1
- The level of expressed mRNA in the presence of chemical substance/The level of expressed mRNA in the absence of chemical substance (yeast gene YKL161C): 1.4
- The level of expressed mRNA in the presence of chemical substance/The level of expressed mRNA in the absence of chemical substance (yeast gene YKL163W): 0.8
- The level of expressed mRNA in the presence of chemical substance/The level of expressed mRNA in the absence of chemical substance (yeast gene YKL164C): 0.8
- The level of expressed mRNA in the presence of chemical substance/The level of expressed mRNA in the absence of chemical substance (yeast gene YKL210W): 0.7
- The level of expressed mRNA in the presence of chemical substance/The level of expressed mRNA in the absence of chemical substance (yeast gene YKR053C): 2.8
- The level of expressed mRNA in the presence of chemical substance/The level of expressed mRNA in the absence of chemical substance (yeast gene YLL024C): 0.5
- The level of expressed mRNA in the presence of chemical substance/The level of expressed mRNA in the absence of chemical substance (yeast gene YLL026W): 1.7
- The level of expressed mRNA in the presence of chemical substance/The level of expressed mRNA in the absence of chemical substance (yeast gene YLL039C): 1.6
- The level of expressed mRNA in the presence of chemical substance/The level of expressed mRNA in the absence of chemical substance (yeast gene YLL060C): 1.9
- The level of expressed mRNA in the presence of chemical substance/The level of expressed mRNA in the absence of chemical substance (yeast gene YLR006C): 1.6
- The level of expressed mRNA in the presence of chemical substance/The level of expressed mRNA in the absence of chemical substance (yeast gene YLR109W): 1.1
- The level of expressed mRNA in the presence of chemical substance/The level of expressed mRNA in the absence of chemical substance (yeast gene YLR259C): 0.8
- The level of expressed mRNA in the presence of chemical substance/The level of expressed mRNA in the absence of chemical substance (yeast gene YML007W): 1.0
- The level of expressed mRNA in the presence of chemical substance/The level of expressed mRNA in the absence of chemical substance (yeast gene YML070W): 1.2
- The level of expressed mRNA in the presence of chemical substance/The level of expressed mRNA in the absence of chemical substance (yeast gene YMR021C): 3.3
- The level of expressed mRNA in the presence of chemical substance/The level of expressed mRNA in the absence of chemical substance (yeast gene YMR173W): 1.9
- The level of expressed mRNA in the presence of chemical substance/The level of expressed mRNA in the absence of chemical substance (yeast gene YMR186W): 0.7
- The level of expressed mRNA in the presence of chemical substance/The level of expressed mRNA in the absence of chemical substance (yeast gene YNL064C): 0.7
- The level of expressed mRNA in the presence of chemical substance/The level of expressed mRNA in the absence of chemical substance (yeast gene YNL160W): 1.0
- The level of expressed mRNA in the presence of chemical substance/The level of expressed mRNA in the absence of chemical substance (yeast gene YNL241C): 1.0
- The level of expressed mRNA in the presence of chemical substance/The level of expressed mRNA in the absence of chemical substance (yeast gene YNR076W): 1.5
- The level of expressed mRNA in the presence of chemical substance/The level of expressed mRNA in the absence of chemical substance (yeast gene YOL064C): 1.2
- The level of expressed mRNA in the presence of chemical substance/The level of expressed mRNA in the absence of chemical substance (yeast gene YOL161C): 1.1
- The level of expressed mRNA in the presence of chemical substance/The level of expressed mRNA in the absence of chemical substance (yeast gene YOR008C): 0.8
- The level of expressed mRNA in the presence of chemical substance/The level of expressed mRNA in the absence of chemical substance (yeast gene YOR009W): 0.9
- The level of expressed mRNA in the presence of chemical substance/The level of expressed mRNA in the absence of chemical substance (yeast gene YOR010C): 1.4
- The level of expressed mRNA in the presence of chemical substance/The level of expressed mRNA in the absence of chemical substance (yeast gene YOR027W): 0.9
- The level of expressed mRNA in the presence of chemical substance/The level of expressed mRNA in the absence of chemical substance (yeast gene YOR208W): 1.6
- The level of expressed mRNA in the presence of chemical substance/The level of expressed mRNA in the absence of chemical substance (yeast gene YPL059W): 1.8
- The level of expressed mRNA in the presence of chemical substance/The level of expressed mRNA in the absence of chemical substance (yeast gene YPL106C): 0.5
- The level of expressed mRNA in the presence of chemical substance/The level of expressed mRNA in the absence of chemical substance (yeast gene YPL140C): 0.9
- The level of expressed mRNA in the presence of chemical substance/The level of expressed mRNA in the absence of chemical substance (yeast gene YPL194W): 1.0
- The level of expressed mRNA in the presence of chemical substance/The level of expressed mRNA in the absence of chemical substance (yeast gene YPL223C): 1.0
- The level of expressed mRNA in the presence of chemical substance/The level of expressed mRNA in the absence of chemical substance (yeast gene YPL240C): 0.8
- The level of expressed mRNA in the presence of chemical substance/The level of expressed mRNA in the absence of chemical substance (yeast gene YPR005C): 1.0
- The level of expressed mRNA in the presence of chemical substance/The level of expressed mRNA in the absence of chemical substance (yeast gene YPR026W): 0.9
